The assay addresses Envelope glycoprotein gp160 (Human immunodeficiency virus 1, UniProt Q6QLK5). Description: inhibitors of HIV fusion peptide binding, primary screen, biochemical, uHTS, fluorescence dequenching (AID 1986).

The source made the active and inactive calls. Rule as the data show it: actives have a measured IC50 and inactives only a lower limit.

Envelope glycoprotein gp160, sequence (Q6QLK5 whole entry, the tested form may be a part): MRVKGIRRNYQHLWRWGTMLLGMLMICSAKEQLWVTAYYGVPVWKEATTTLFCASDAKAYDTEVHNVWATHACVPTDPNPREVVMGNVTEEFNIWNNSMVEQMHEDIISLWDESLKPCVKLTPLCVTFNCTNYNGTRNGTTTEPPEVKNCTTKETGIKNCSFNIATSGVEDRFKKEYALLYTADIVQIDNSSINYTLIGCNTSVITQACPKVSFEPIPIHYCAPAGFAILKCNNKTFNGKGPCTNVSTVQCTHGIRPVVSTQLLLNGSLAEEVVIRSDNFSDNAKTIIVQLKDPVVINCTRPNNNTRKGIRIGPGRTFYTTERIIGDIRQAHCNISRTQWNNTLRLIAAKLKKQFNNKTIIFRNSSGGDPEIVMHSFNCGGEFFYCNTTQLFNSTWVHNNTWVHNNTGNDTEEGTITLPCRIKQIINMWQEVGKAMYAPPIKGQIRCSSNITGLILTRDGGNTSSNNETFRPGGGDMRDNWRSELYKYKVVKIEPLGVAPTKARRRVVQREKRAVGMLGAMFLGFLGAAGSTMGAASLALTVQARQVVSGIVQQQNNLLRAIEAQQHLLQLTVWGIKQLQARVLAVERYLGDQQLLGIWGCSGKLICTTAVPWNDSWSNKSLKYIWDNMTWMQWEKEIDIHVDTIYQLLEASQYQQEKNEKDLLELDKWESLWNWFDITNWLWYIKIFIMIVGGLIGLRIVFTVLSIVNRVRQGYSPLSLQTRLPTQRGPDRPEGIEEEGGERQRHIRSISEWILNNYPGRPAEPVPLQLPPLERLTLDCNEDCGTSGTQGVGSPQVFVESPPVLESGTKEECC

In general, IC50 refers to the concentration needed to halve the response being measured. As for `O=C(O)c1[nH]c2ccccc2c1C(c1cc(Br)ccc1O)c1c(C(=O)O)[nH]c2ccccc12`, the IC50 is 4.11 µM (active).
For the compound `COc1cc(/C=N/Nc2ccc(Cl)c(C(=O)O)c2)ccc1OC(=O)c1ccc(F)cc1`, the IC50 is 26.8 µM (active).

(Values after ChEMBL document CHEMBL1201862, “PubChem BioAssay data set” (2004).)
